Results taken from patent publication US20020010128A1, “Treatment of hyperproliferative, inflammatory and related mucocutaneous disorders using inhibitors of mevalonate synthesis and metabolism” (priority 2000, published 2002).

Columns and labels:
[1] = system: Murine thymic T cells; assay: Murine thymic T cell proliferation (ConA stimulation, MTT assay); type: cell-based; conditions: for effect of mevalonate on inhibition of T cell proliferation: presence of 1 mM mevalonate; for inhibition of T cell proliferation: murine thymic T cells, different concentrations
Description: Murine thymic T cells were stimulated with Concanavalin A and incubated for 72 hr, and proliferation was then assessed by measuring viable cell number using the MTT assay (OD 570 nm proportional to viable cell number). Different concentrations of mevastatin and oxysterol alone (CP compounds; Panel A) or oxysterol combined with lanolin (Panel B) were added to the cells 1 hr following ConA treatment (FIG. 2).
T cells were incubated with different concentrations of mevastatin (CP 115) alone or in the presence of 1 mM mevalonate (MA). The inhibition of T cell proliferation by mevastatin was prevented by addition of mevalonic acid, the product of the HMG-CoA reductase reaction (FIG. 3).
Murine thymic T cells were incubated with different concentrations of 25-hydroxycholesterol (CP 105; Panel A) or an oxysterol combined with lanolin (C-010; Panel B) in the absence or presence of 1 mM mevalonate (MA).
To further test this synergistic effect, T cells were incubated with different concentrations of mevastatin alone or in combination with 0.25 μg/ml 25-hydroxycholesterol (CP 105; FIG. 5, Panel A) or 10 μg/ml of an oxysterol combined with lanolin (C-010; FIG. 5, Panel B). The data was expressed as percent of control proliferation. CP 105 and C-010 inhibited T cell proliferation 14% and 28% at the indicated concentrations, respectively. Thus minimally effective concentrations of 25-hydroxycholesterol and C-0010-010 decreased the IC50 of mevastatin by a factor greater than 10-fold (FIG. 5). This experiment confirmed that the inhibition of T cell proliferation by mevastatin is advantageously potentiated by oxysterols.
Murine thymic T cells were incubated with different concentrations of an inhibitor of geranylgeranyl transferase (GGTI).

[2] = system: NFAT; assay: NFAT-regulated reporter gene in transiently transfected Jurkat cells; type: cell-based, human; conditions: for NFAT activity induced by ionomycin and dominant active ras / NFAT activity stimulated by PMA and dominant active calcineurin: Jurkat cells
Text: The effects of lovastatin on NFAT activation and IL-2 gene expression were investigated in Jurkat T cells (human leukemia T cells). Lovastatin inhibited the expression of an NFAT-regulated reporter gene in transiently transfected Jurkat cells stimulated with ionomycin and PMA or with thapsigargin + PMA.
NFAT is synergistically activated by the Ca^2+/calcineurin and PKC/ras/MAPK pathways. To gain further insight into the novel mechanism of action of lovastatin, dominant active forms of calcineurin and ras were expressed in Jurkat cells to bypass early signaling events mediated by ionomycin (i.e., Ca^2+) and PMA (i.e., PKC).

[3] = system: human IL-2 promoter; assay: Human IL-2 promoter activation in Jurkat cells; type: cell-based
Text: (§1) The effects of lovastatin on NFAT activation and IL-2 gene expression were investigated in Jurkat T cells (human leukemia T cells).

[4] = system: RSV-driven control reporter gene; assay: RSV-driven control reporter gene in Jurkat cells; type: cell-based, human
Text: as §1

[5] = system: IL-2 mRNA; assay: IL-2 mRNA accumulation in stimulated Jurkat cells; type: cell-based, human; conditions: Jurkat cells stimulated with ionomycin and PMA
Text: (§2) Since NFAT plays a critical role in IL-2 gene transcription, the effects of lovastatin on IL-2 mRNA levels and IL-2 secretion from stimulated lymphoid cells were investigated.

[6] = system: IL-2; assay: IL-2 secretion from stimulated Jurkat cells; type: cell-based, human
Text: as §2

[7] = system: TNF-α; assay: TNF-alpha secretion from stimulated Jurkat cells; type: cell-based, human; conditions: ionomycin and PMA-stimulated Jurkat cells
[8] = system: RBL-2H3 mucosal mast cell line; assay: 3H-serotonin release (degranulation) from RBL-2H3 mast cells; type: cell-based
Text: The RBL-2H3 mucosal mast cell line has been used extensively to study stimulus secretion coupling. Treatment with a calcium ionophore or antigenic crosslinking of the high affinity receptor for IgE on these cells leads to degranulation and the secretion of various proinflammatory mediators, including biogenic amines such as histamine and serotonin.

[9] = system: DNFB-induced contact hypersensitivity in mice; assay: DNFB-induced contact hypersensitivity in mice (ear swelling); type: in vivo, mouse; conditions: 1% topical, applied 30 minutes or one hour after challenge, 48 hours post-challenge
Description: The protocol involved shaving the posterior portion of the backs of anesthetized 7-8 week old female Balb/c mice with electric clippers. […] The concentration of DNCB in the sensitizing solution ranged from 0.5% to 4% w/v or 0.1 to 0.5% for DNFB. […] Post challenge ear thickness measurements were taken at 8, 16, 24, 32, 48, 56 and 72 hours. […] However, a swelling response of at least 50% above baseline was considered reasonable.
(§3) The percent suppression for each formulation was determined at 48 hours post-challenge.

[10] = system: oxazolone-induced contact hypersensitivity in mice; assay: Oxazolone-induced contact hypersensitivity in mice; type: in vivo, mouse; conditions: topical sensitizer oxazolone instead of DNFB
Description: Challenging mouse ears with haptens, such as 1-chloro-2,4-dinitrobenzene (DNCB), 2,4-dinitrofluorobenzene (DNFB), or oxazolone after a 5 day sensitization phase, induced severe swelling associated with an immune response that included a memory T cell infiltrate. Maximum swelling occurred between 24 and 48 hours after challenge. Thus, DNFB, DCNB and oxazolone were considered to induce delayed contact hypersensitivity.
The protocol involved shaving the posterior portion of the backs of anesthetized 7-8 week old female Balb/c mice with electric clippers. DNCB in acetone:olive oil (4:1), DNFB in acetone alone or oxazolone (15% oxazolone in 97% acetone/3% DMSO) was applied to the shaved area in a volume of 50 μl (DNCB), 100 μl (DNFB), or 20 μl (oxazolone). The concentration of DNCB in the sensitizing solution ranged from 0.5% to 4% w/v or 0.1 to 0.5% for DNFB. Five days after sensitization, the thickness of both ears was measured with a spring-loaded micrometer and both surfaces of the ears were challenged with either 10 μl of DNCB in acetone:olive oil ranging in concentration from 0.25%-2.5% w/v, 10 μl of DNFB in acetone at 0.1%, 10 μl 2% oxazolone in 97% acetone/3% DMSO, or vehicle alone. Post challenge ear thickness measurements were taken at 8, 16, 24, 32, 48, 56 and 72 hours. […]
as §3

[11] = system: Asthma patients; assay: Treatment of asthma patients with aerosolized lovastatin; type: in vivo, human; conditions: aerosolized form or nasal inhaler
[12] = system: TPA-induced ear swelling in mice; assay: TPA-induced ear swelling, mouse acute irritant dermatitis model; type: in vivo
Description: Mevastatin was tested topically at 0.5% with several oxysterols known to downregulate HMG-CoA reductase expression, including 25-hydroxycholesterol, in the mouse acute irritant dermatitis model. TPA was applied topically to the ears of mice and the resultant swelling response was measured 24 hr later. Compounds or vehicle alone were topically applied to ears 1 and 6 hr following TPA treatment. The data was expressed as a percent inhibition of the swelling response in the presence of compounds as compared to ears treated with vehicle only.
The phorbol ester 12-0-tetradecanoyl-13-phorbol acetate (TPA) is the active ingredient in […]. TPA induced skin inflammation peaked between 24 and 30 hours when the ear was the target and between 8 and 16 hours when the flank was the target. These two alternative targets allowed to determine both the short and the longer term activity of different compounds in suppressing TPA-induced inflammation. […]
The model systems described in Example 9 were employed, using TPA challenge as a model for acute inflammation. […] The percent suppression for each formulation was determined as described in Example 9 at 30 hours post-challenge (for TPA). Results are reported as the percent suppression of inflammation compared to untreated controls, as measured by ear thickness.

Question: Which results are given for `C[C@H](CCCC(C)(C)O)[C@H]1CC[C@H]2[C@@H]3CC=C4C[C@@H](O)CC[C@]4(C)[C@H]3CC[C@]12C` [25-hydroxycholesterol]?
Answer: inhibition at 0.25 µg/mL ([1]; Mus musculus, T-cell, 0.25 μg/ml): 14%; effect of mevalonate on inhibition of T cell proliferation [1]: not prevented by mevalonic acid

Question: With `COC(=O)[C@H](CC(C)C)NC(=O)c1ccc(NC[C@@H](N)CS)cc1-c1ccccc1` [GGTI-286] as the compound, how does the “inhibition of T cell proliferation” value [1] read?
Answer: Dose-dependent inhibition

Question: What does the source list for `CN(C)CCCn1cc(C2=C(c3c[nH]c4ccccc34)C(=O)NC2=O)c2ccccc21` [Gö6850]?
Answer: NFAT activity induced by ionomycin and dominant active ras [2]: inactive; NFAT activity stimulated by PMA and dominant active calcineurin [2]: inhibited

Question: How did the “NFAT activity induced by ionomycin and dominant active ras” value [2] turn out when `CC[C@H](C)C(=O)O[C@H]1C[C@@H](C)C=C2C=C[C@H](C)[C@H](CC[C@@H]3C[C@@H](O)CC(=O)O3)[C@H]21` [lovastatin] was run?
Answer: strongly inhibited

Question: What about the “NFAT activity stimulated by PMA and dominant active calcineurin” value [2] of the same compound?
Answer: relatively insensitive

Question: And the “expression of NFAT-regulated reporter gene” value ([2]; Jurkat cells stimulated with ionomycin and PMA or thapsigargin + PMA)?
Answer: inhibited

Question: What about the “effect of mevalonic acid on inhibition of NFAT reporter activity” value ([2]; preincubation of Jurkat cells with mevalonic acid) of the same compound?
Answer: did not reverse

Question: And the IC50 ([2]; stated as similar to the IL-2 secretion IC50, read-out: IC50, inhibition of NFAT-dependent reporter activity)?
Answer: ~12 µM

Question: What about the “activation of the human IL-2 promoter” value [3] of the same compound?
Answer: inhibited activation

Question: What about the “transcription from RSV-driven control reporter gene” value [4] of the same compound?
Answer: did not affect

Question: What about the “IL-2 mRNA accumulation” value [5] of the same compound?
Answer: inhibited

Question: And the IC50 ([6]; Jurkat cells stimulated with ionomycin and PMA, read-out: IC50, inhibition of IL-2 secretion)?
Answer: 12 µM

Question: And the “effect of mevalonic acid on inhibition of IL-2 secretion” value ([6]; addition of mevalonic acid)?
Answer: not reversed

Question: And the TNF-α secretion [7]?
Answer: inhibit

Question: And the “release of 3H-serotonin” value ([8]; RBL-2H3 cells stimulated with antigen or calcium ionophore, dose-dependent)?
Answer: inhibited

Question: And the “effect of mevalonic acid on inhibition of 3H-serotonin release” value ([8]; co-incubation with mevalonic acid)?
Answer: not reversed

Question: And the “suppression of DNFB-induced delayed contact hypersensitivity (ear swelling)” value [9]?
Answer: reduced delayed contact hypersensitivity

Question: And the “suppression of oxazolone-induced contact hypersensitivity” value [10]?
Answer: dose-dependent

Question: What about the “relief of lung constriction and inflammation in asthma patients” value [11] of the same compound?
Answer: more effective relief of lung constriction and inflammation

Question: How did the “percent suppression of TPA-induced acute inflammation, measured by ear thickness” value ([12]; 0.5% in ethanol/cyclohexane (1:1), applied 30 minutes or one hour after challenge, 30 hours post-challenge) turn out when `CC[C@H](C)C(=O)O[C@H]1CCC=C2C=C[C@H](C)[C@H](CC[C@@H]3C[C@@H](O)CC(=O)O3)[C@H]21` [mevastatin] was run?
Answer: 58%

Question: What about the “inhibition of TPA-induced ear swelling” value ([12]; 0.5% topical, applied 1 and 6 hr after TPA, swelling measured 24 hr later) of the same compound?
Answer: significantly inhibited

Question: And the “inhibition of T cell proliferation” value [1]?
Answer: potently inhibit

Question: And the “effect of mevalonate on inhibition of T cell proliferation” value [1]?
Answer: reversed by mevalonate
